Measurements as given in patent US6355799B1, “Substituted benzene compounds, process for their preparation, and herbicidal and defoliant compositions containing them” (ISK Americas Incorporated, priority 1997, dated 2002).

Legend:
Format in all cases: in vivo
[1] = test system: redroot pigweed (Amaranthus retroflexus, AMARE); test: Pre-emerge test, greenhouse herbicide activity screening; details: pre-emerge, 14 days after application, rating scale 0-100
In short: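 Herbicidal damage is scored 0 (none) to 100 (complete plant death) two weeks after a simulated field spray. Rates span 15–1000 g ai/ha, delivered in acetone at 187 l/ha. For post-emergence treatments, plants have 2–3 leaves and the spray carries 0.25% v/v non-ionic surfactant.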

[2] = test system: upland rice (Oryza sp., var. Tebonnet, RICE); test: Post-emerge test, crop safety; details: post-emerge, 14 days after application, rating scale 0-100
In short: (§1)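 Rating: 0–100 visual injury, 14 DAA. Application: acetone, 187 l/ha, 15–1000 g ai/ha, flat-fan track sprayer with nozzle 40–45 cm above soil or canopy. Post-emerge runs used 0.25% v/v surfactant on 2–3 leaf plants.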

[3] = test system: field corn (Zea mays L., var. Dekalb 535, CORN); test: Post-emerge test, crop safety; details: post-emerge, 14 days after application, rating scale 0-100
In short: as §1

[4] = test system: velvetleaf (Abutilon theophrasti, ABUTH); test: Pre-emerge test, greenhouse herbicide activity screening; details: pre-emerge, 14 days after application, rating scale 0-100
In short: (§2)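 Compounds in acetone were track-sprayed at 15–1000 g ai/ha: pre-emergence onto soil sown the previous day, then top-watered to incorporate and later bottom-watered; post-emergence onto 2–3 leaf plants with 0.25% v/v surfactant, bottom-watered only. Ratings on a 0–100 phytotoxicity scale were taken at day 14.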

[5] = test system: green foxtail (Setaria viridis, SETVI); test: as above; details: pre-emerge, 14 days after application, rating scale 0-100
In short: as §2

[6] = test system: barnyardgrass (Echinochloa crus-galli, ECHCG); test: as above; details: pre-emerge, 14 days after application, rating scale 0-100
In short: as §2

[7] = test system: lambsquarters (Chenopodium album, CHEAL); test: as above; details: pre-emerge, 14 days after application, rating scale 0-100
In short: as §2

[8] = test system: large crabgrass (Digitaria sanguinalis, DIGSA); test: as above; details: pre-emerge, 14 days after application, rating scale 0-100
In short: as §2

[9] = test system: ivyleaf morningglory (Ipomoea hederacea, IPOHE); test: as above; details: pre-emerge, 14 days after application, rating scale 0-100
In short: as §2

[10] = test system: johnsongrass (Sorghum halepense, SORHA); test: as above; details: pre-emerge, 14 days after application, rating scale 0-100
In short: as §2

[11] = test system: common ragweed (Ambrosia artemisizfolia L., AMBEL); test: as above; details: pre-emerge, 14 days after application, rating scale 0-100
In short: as §2

[12] = test system: sicklepod (Cassia obtusifolia, CASOB); test: as above; details: pre-emerge, 14 days after application, rating scale 0-100
In short: as §2

[13] = test system: upland rice (Oryza sp., var. Tebonnet, RICE); test: Pre-emerge test, crop safety; details: pre-emerge, 14 days after application, rating scale 0-100
In short: (§3)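 Applied at 15–1000 g ai/ha from acetone in 187 l/ha spray volume. Post-emergence applications included 0.25% v/v non-ionic surfactant and reached plants sown 8–21 days before. Pre-emergence applications were incorporated by surface watering. Efficacy or crop damage was rated on a 0–100 scale after 14 days.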

[14] = test system: field corn (Zea mays L., var. Dekalb 535, CORN); test: Pre-emerge test, crop safety; details: pre-emerge, 14 days after application, rating scale 0-100
In short: as §3

[15] = test system: velvetleaf (Abutilon theophrasti, ABUTH); test: Post-emerge test, greenhouse herbicide activity screening; details: post-emerge, 14 days after application, rating scale 0-100
In short: (§4)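 Compounds in acetone were track-sprayed at 187 l/ha, 15–1000 g ai/ha, onto sandy loam pots. Pre-emerge seeds were sown one day before spraying, with surface watering afterwards. Post-emerge plants were at the 2–3 leaf stage and sprayed with 0.25% v/v non-ionic surfactant. Injury was rated 0–100 at 14 days.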

[16] = test system: green foxtail (Setaria viridis, SETVI); test: as above; details: post-emerge, 14 days after application, rating scale 0-100
In short: as §4

[17] = test system: barnyardgrass (Echinochloa crus-galli, ECHCG); test: as above; details: post-emerge, 14 days after application, rating scale 0-100
In short: as §4

[18] = test system: lambsquarters (Chenopodium album, CHEAL); test: as above; details: post-emerge, 14 days after application, rating scale 0-100
In short: as §4

[19] = test system: large crabgrass (Digitaria sanguinalis, DIGSA); test: as above; details: post-emerge, 14 days after application, rating scale 0-100
In short: as §4

[20] = test system: ivyleaf morningglory (Ipomoea hederacea, IPOHE); test: as above; details: post-emerge, 14 days after application, rating scale 0-100
In short: as §4

[21] = test system: johnsongrass (Sorghum halepense, SORHA); test: as above; details: post-emerge, 14 days after application, rating scale 0-100
In short: as §4

[22] = test system: redroot pigweed (Amaranthus retroflexus, AMARE); test: as above; details: post-emerge, 14 days after application
In short: as §4

[23] = test system: sicklepod (Cassia obtusifolia, CASOB); test: as above; details: post-emerge, 14 days after application, rating scale 0-100
In short: as §4

Compound: COc1c(Cl)cc(F)c(-n2c(=O)cc(C(F)(F)F)n(C)c2=O)c1NNC(=O)c1ccccc1 [15-3]
- phytotoxicity rating AMARE ([1]; 63 g ai/ha): 100
- phytotoxicity rating AMARE ([1]; 250 g ai/ha): 100
- Post-emerge Herbicidal Activity RICE (crop damage rating) ([2]; 63 g ai/ha): 50
- Post-emerge Herbicidal Activity RICE (crop damage rating) ([2]; 250 g ai/ha): 90
- Post-emerge Herbicidal Activity CORN (crop damage rating) ([3]; 63 g ai/ha): 25
- Post-emerge Herbicidal Activity CORN (crop damage rating) ([3]; 250 g ai/ha): 80
- phytotoxicity rating ABUTH ([4]; 63 g ai/ha): 100
- phytotoxicity rating ABUTH ([4]; 250 g ai/ha): 100
- phytotoxicity rating SETVI ([5]; 63 g ai/ha): 100
- phytotoxicity rating SETVI ([5]; 250 g ai/ha): 100
- phytotoxicity rating ECHCG ([6]; 63 g ai/ha): 100
- phytotoxicity rating ECHCG ([6]; 250 g ai/ha): 100
- phytotoxicity rating CHEAL ([7]; 63 g ai/ha): 100
- phytotoxicity rating CHEAL ([7]; 250 g ai/ha): 100
- phytotoxicity rating DIGSA ([8]; 63 g ai/ha): 100
- phytotoxicity rating DIGSA ([8]; 250 g ai/ha): 100
- phytotoxicity rating IPOHE ([9]; 63 g ai/ha): 100
- phytotoxicity rating IPOHE ([9]; 250 g ai/ha): 100
- phytotoxicity rating SORHA ([10]; 63 g ai/ha): 100
- phytotoxicity rating SORHA ([10]; 250 g ai/ha): 100
- phytotoxicity rating AMBEL ([11]; 63 g ai/ha): 100
- phytotoxicity rating AMBEL ([11]; 250 g ai/ha): 100
- phytotoxicity rating CASOB ([12]; 63 g ai/ha): 100
- phytotoxicity rating CASOB ([12]; 250 g ai/ha): 100
- phytotoxicity rating RICE ([13]; 63 g ai/ha): 95
- phytotoxicity rating RICE ([13]; 250 g ai/ha): 100
- phytotoxicity rating CORN ([14]; 63 g ai/ha): 90
- phytotoxicity rating CORN ([14]; 250 g ai/ha): 100
- Post-emerge Herbicidal Activity ABUTH (phytotoxicity rating) ([15]; 63 g ai/ha): 100
- Post-emerge Herbicidal Activity ABUTH (phytotoxicity rating) ([15]; 250 g ai/ha): 100
- Post-emerge Herbicidal Activity SETVI (phytotoxicity rating) ([16]; 63 g ai/ha): 30
- Post-emerge Herbicidal Activity SETVI (phytotoxicity rating) ([16]; 250 g ai/ha): 80
- Post-emerge Herbicidal Activity ECHCG (phytotoxicity rating) ([17]; 63 g ai/ha): 10
- Post-emerge Herbicidal Activity ECHCG (phytotoxicity rating) ([17]; 250 g ai/ha): 90
- Post-emerge Herbicidal Activity CHEAL (phytotoxicity rating) ([18]; 63 g ai/ha): 95
- Post-emerge Herbicidal Activity CHEAL (phytotoxicity rating) ([18]; 250 g ai/ha): 100
- Post-emerge Herbicidal Activity DIGSA (phytotoxicity rating) ([19]; 63 g ai/ha): 20
- Post-emerge Herbicidal Activity DIGSA (phytotoxicity rating) ([19]; 250 g ai/ha): 80
- Post-emerge Herbicidal Activity IPOHE (phytotoxicity rating) ([20]; 63 g ai/ha): 95
- Post-emerge Herbicidal Activity IPOHE (phytotoxicity rating) ([20]; 250 g ai/ha): 100
- Post-emerge Herbicidal Activity SORHA (phytotoxicity rating) ([21]; 63 g ai/ha): 0
- Post-emerge Herbicidal Activity SORHA (phytotoxicity rating) ([21]; 250 g ai/ha): 90
- Post-emerge Herbicidal Activity AMARE (phytotoxicity rating) ([22]; 63 g ai/ha, rating scale 0-100 (0 no damage, 100 complete death)): 95
- Post-emerge Herbicidal Activity AMARE (phytotoxicity rating) ([22]; 250 g ai/ha, rating scale 0-100): 100
- Post-emerge Herbicidal Activity CASOB (phytotoxicity rating) ([23]; 63 g ai/ha): 70
- Post-emerge Herbicidal Activity CASOB (phytotoxicity rating) ([23]; 250 g ai/ha): 100
